The values that follow come from patent publication US20040223932A1, “Adhesive treatment for acne” (Closure Medical Corporation, priority 2003, published 2004).

The data set can be described thus: Observation of the monomer composition after preparation (clarity, solubility, premature polymerization). It counts as physicochemical. The note with it: 2 wt % in 2-octyl cyanoacrylate monomer. The source says:
The characteristics of the composition are observed at about one minute after preparation and later at least twenty-four hours after preparation.

On to `O=C(O)c1ccccc1O` [salicylic acid], for which the “solubility in the monomer” value (inferred from clear solution) is recorded as “soluble”. The “premature polymerization of the monomer” value (up to at least twenty-four hours) is recorded as “does not cause premature polymerization”.
